5 molecules from ChEMBL document CHEMBL1149872, “Glycosides from the root of Iodes cirrhosa” (2008) can be followed below.

This experiment has as its system PC-12. The experiment can be described thus: Neuroprotective activity against rat PC12 cells assessed as glutamate-induced neurotoxicity at 10 uM after 24 hrs by MTT assay. The format is functional. Background: Formazan colour is commonly taken as a measure of viable cells.
Take `COc1cc([C@H](O)[C@H](CO)O[C@@H]2O[C@H](CO)[C@@H](O)[C@H](O)[C@H]2O)ccc1O`: the Activity is -32.9%.

On to `COc1cc([C@H]2OC[C@H]3[C@@H]2CO[C@@H]3c2cc(OC)c(O[C@@H]3O[C@H](CO)[C@@H](O)[C@H](O)[C@H]3O)c(OC)c2)cc(OC)c1O[C@H]1O[C@@H](CO)[C@H](O)[C@@H](O)[C@@H]1O` [LIRIODENDRTACHIOSIDE], for which the Activity is given as 20.5%.

`COc1cc([C@H](O)[C@H](CO)O[C@@H]2O[C@H](CO)[C@@H](O)[C@H](O)[C@H]2O)cc(OC)c1O`: the Activity was -28.4%.

For the molecule `COc1cc([C@@H](O)[C@H](CO)O[C@@H]2O[C@H](CO)[C@@H](O)[C@H](O)[C@H]2O)ccc1O`, the Activity was -46.6%.

For the molecule `COc1cc([C@@H](O)[C@H](CO)Oc2ccc(CCCO[C@@H]3O[C@H](CO)[C@@H](O)[C@H](O)[C@H]3O)cc2O)ccc1O`, the Activity was 36.4%.
